Patent US7635788B2, “Alpha-amino acid derivatives with antiinflammatory activity” (Italfarmaco SpA, priority 2004, dated 2009)

Experiments:
[1] = tested on: TNFα production by peripheral blood mononucleocytes stimulated with LPS; assay: Inhibition of TNFα production by human monocytes stimulated with LPS; format: cell-based; conditions: LPS 10 ng/ml, 24 hours, ELISA
Description: The compounds were dissolved in DMSO at a final concentration of 10 mM.
The solutions for the assay were prepared by diluting the mother solutions in RPMI 1640 with the addition of 1% FCS and 0.01% DMSO and were filtered with 0.2 μm filters.
The peripheral blood mononucleocytes were obtained from blood from healthy donors by separation in a Ficoll-Hypaque gradient [C. G. Figdor, et al. Blood, 1982, 60: 46-53]. The cells were sown in 96-well plates, at a concentration of approx. 500,000 cells per well, suspended in RPMI 1640 containing 1% FCS and were incubated at 37° C. in the presence of different concentrations (from 10^−6 to 10^−11M) of the compounds to be investigated. After 1 hour, LPS was added (at a final concentration of 10 ng/ml; obtained from E. coli 055:B5) and the plates were incubated at 37° C. for a further 24 hours. At the end of this period, the supernatants were collected and used for the determination of TNFα content by means of ELISA (DuoSet ELISA kit; R&D Systems, Minneapolis, Minn., USA).
The concentration of TNFα was calculated using a calibration curve and the IC50 values (the concentration which brings about 50% inhibition of the production of the cytokine) were calculated from the curve obtained by plotting the percentage inhibition values for each individual concentration of the compound under investigation.

[2] = tested on: human hepatoma cell line Hep-G2; assay: Cytotoxicity towards tumour cells in vitro (Cell Titer 96 formazane colorimetric assay); format: cell-based; conditions: 48 h, percentage inhibition of the formation of formazane relative to the control
Description: The cytotoxicity of some compounds described in the preceding Examples was evaluated in vitro on human hepatoma cell line Hep-G2, by means of a commercial colorimetric method (Cell Titer 96® Aque ous One Solution Cell Proliferation Assay—Promega); the method determines the number of viable cells on the basis of their capacity to metabolise a tetrazolium salt producing formazane. The quantity of formazane produced is proportional to the number of viable cells.
The Hep-G2 cells are distributed 96 well microplates at a density of 4×10^4 cells/well (100 μl), in M199 medium containing 10% foetal bovine serum and supplements (complete medium).
After 24 hours' incubation (37° C., 5% CO2, 90% humidity), the cells are washed once and the medium is replenished with 200 μl of complete medium containing the substances to be tested at the final concentration of 10^−5, 10^−6 and 10^−7M. The test is performed in triplicate.
The plates are incubated for a further 48 h, at the end of which 100 μl of medium are removed and 20 μl/well of staining solution are added in accordance with the supplier's instructions. Optical density (λ=490 nm) is read after 1 hour's incubation at 37° C. using a plate reader (Victor2—Wallac Perkin Elmer).

| SMILES | IC50 ([1]; Monocyte) | Cytotoxicity at 10^−5 M [2] | Cytotoxicity at 10^−6 M [2] | IC50 [1] |
| --- | --- | --- | --- | --- |
| O=C(NO)c1ccc(NC(=O)[C@H](Cc2ccc(O)cc2)NC(=O)c2ccccc2)cc1 [Example 2k, 4-[2(S)-Benzoylamino-3-(4-hydroxy-phenyl)-propionylamino]-N-hydroxy-benzamide] | 148 nM | 54.4% | 27.7% | – |
| CC(=O)N[C@H](Cc1ccc2ccccc2c1)C(=O)Nc1ccc(C(=O)NO)cc1 [Example 2b, 4-(2(R)-Acetylamino-3-naphthalen-2-yl-propionylamino)-N-hydroxy-benzamide] | 51.8 nM | 48.3% | 10.6% | – |
| CC(=O)N[C@@H](Cc1ccc(C(F)(F)F)cc1)C(=O)Nc1ccc(C(=O)NO)cc1 [Example 2j, 4-[2(S)-Acetylamino-3-(4-trifluoromethyl-phenyl)-propionylamino]-N-hydroxy-benzamide] | 4.6 nM | 39.3% | 15.8% | – |
| O=C(NO)c1ccc(NC(=O)[C@H](Cc2ccc3ccccc3c2)NC(=O)c2ccc3c(c2)OCO3)cc1 [Example 2t, N-[1(S)-(4-hydroxycarbamoyl-phenylcarbamoyl)-2-naphthalen-2-yl-ethyl]-amide of benzo[1,3]dioxole-5-carboxylic acid] | – | 79.3% | 48.5% | 4.8 nM |
